Where two headings read alike, the source gives them in different places. Starred links: 1 amine or outer side, 2 acyl side, 3 side chain; linkers in the order of their positions; H or OH if unused. Positions of bridges follow the written chain, without caps; N, C: chain ends. Non-standard residues stand in square brackets, D forms with d. Residues, ends and D or L forms follow the SMILES beside them. *: point of attachment. Orn(4R-OH,5R-OCH2CH2NMe3+) = C[N+](C)(C)CCO[C@@H](N[*:3])[C@H](O)C[C@H](N[*:1])C(=O)[*:2]; pTerphenylCO(4''-OnC5H11) = CCCCCOc1ccc(-c2ccc(-c3ccc(C(=O)*)cc3)cc2)cc1; hTyr(3S-OH,4S-OH) = N[C@H](C(=O)O)[C@H](O)[C@@H](O)c1ccc(O)cc1; Pro(3S-OH,4S-Me) = C[C@H]1CN[C@H](C(=O)O)[C@H]1O; Hyp = O=C(O)[C@@H]1C[C@@H](O)CN1
Columns and labels:
[1] = tested on: Aspergillus fumigatus (ATCC 13073); test: Prophylaxis, neutropenic ICR mouse disseminated aspergillosis model, survival
[2] = tested on: Candida albicans ATCC SC5314; test: MIC used for free drug plasma concentration over MIC, candidiasis model; type: cell-based
[3] = tested on: A. fumigatus clinical isolates; conditions: Aspergillus fumigatus clinical isolates; SENTRY, Pfaller, et al 2017; cited from earlier work
[4] = Monkey SC local tolerability study; type: in vivo, cynomolgus monkey
Procedure: (§1) Previous toxicology studies by the IV route of administration conducted in cynomolgus monkeys have shown CD101 to be safe and well tolerated at up to at least 30 mg/kg, which generates very high systemic exposures upon initial infusion of CD101 into the bloodstream. Therefore, only local tolerability (and PK) of CD101 by SC administration required evaluation. […] Plasma concentrations were then quantified by liquid chromatography with tandem mass spectrometric detection (LC-MS/MS). Bioavailability from SC dosing was calculated by comparing the calculated area under the concentration-time profile (AUC) from SC against the AUC from IV administration of the same dose.
Therefore, a separate study was designed to evaluate the tolerability of a SC dose of CD101 as a highly concentrated solution (100 mg/mL; 30 mg/kg) in two cynomolgus monkeys. […] The drug reaches a maximum concentration within a few hours then remains nearly constant over the course of 10 days.

candidemia = test: Human subject with candidemia, single intravenous dose (Example 2); type: in vivo; conditions: single dose of 50-800 mg acetate salt of CD101, intravenous infusion
Procedure: A human subject is diagnosed with candidemia using standard diagnostic procedures. The subject receives treatment with a single dose of 50-800 mg (e.g., 75±25 mg, 100±25 mg, 150±50 mg, 200±50 mg, 250±50 mg, 300±50 mg, 350±50 mg, 400±50 mg, 450±50 mg, 500±100 mg, 600±100 mg, 700±100 mg, 800±100 mg, 900±50 mg, 1000 mg±100 mg, or 1100±100 mg) of the acetate salt of CD101 administered by intravenous infusion. No other antifungal treatment is provided to the subject within one to three weeks before or after administration of the single dose CD101 treatment.

Pneumocystis spp. = test: Murine model of Pneumocystis pneumonia; conditions: in vivo
Description: (§2) The in vitro activity of CD101 was previously evaluated as part of the SENTRY international surveillance program using CLSI broth microdilution methodology (M38-A2, M27-A3; Pfaller, et al 2017). […] These susceptibility data were then compared graphically to CD101 plasma concentrations from studies in healthy adults, adjusted for plasma protein binding. Nonclinical efficacy in a murine model of Pneumocystis pneumonia were also considered to evaluate CD101 doses for clinical investigation of antifungal prophylaxis.

A. fumigatus ATCC 13073 = test: Disseminated aspergillosis, treatment, neutropenic ICR mice (Example 17); type: in vivo, Aspergillus fumigatus
Description: Survival monitored for ≥10 days.

[5] = Protein binding by ultracentrifugation, human plasma; type: in vitro ADME
Procedure: Concentrations in plasma ranging from 7 to 60 μg/mL were tested and resulting samples were analyzed by LC-MS/MS.

[6] = tested on: Aspergillus fumigatus (ATCC 13073); test: Neutropenic mouse aspergillosis model, survival; type: in vivo; conditions: CD101 2 mg/kg IV or IP one dose; 10 days
[7] = tested on: A. fumigatus clinical isolates; test: CLSI broth microdilution (M38-A2) MEC, SENTRY clinical isolates; type: cell-based, Aspergillus fumigatus; conditions: 153 A. fumigatus clinical isolates, 2014 and 2015
Description: as §2
The in vitro activity of CD101 was evaluated against 153 A. fumigatus clinical isolates collected as part of the 2014 and 2015 JMI international SENTRY surveillance program. Susceptibility was determined by measuring the minimal effective concentration (MEC) values in accordance with CLSI broth microdilution guidelines (M38-A2). In vivo tissue distribution of CD101 in SD rats (N=3/time up to 5 d) after a 5 mg/kg IV CD101 dose. Plasma/tissue concentrations were measured by LC-MS/MS.

[8] = Pharmacokinetics of CD101 after single 30 mg/kg SC (vs IV) dose in monkeys; type: in vivo; conditions: cynomolgus monkey, plasma; for half-life: 30 mg/kg
Procedure: as §1

[9] = Single-dose plasma pharmacokinetics in mice, IP; type: in vivo, mouse; conditions: IP doses of 1, 4, 16, and 64 mg/kg
Procedure: Plasma from groups of three mice per time point (1, 3, 6, 12, 24, 48, and 72-h) was collected. The plasma drug concentrations were determined by liquid chromatography-tandem mass spectrometry. A noncompartmental model was used in the pharmacokinetic analysis. Elimination half-life was calculated by nonlinear least-squares technique. The area under the concentration-time curve (AUC) was calculated by the trapezoidal rule. Pharmacokinetic exposures for doses not directly measured in the PK study were estimated by linear extrapolation for higher and lower dose levels and by interpolation for dose levels within the dose range studied given the linear PK results.

[10] = Pharmacokinetic profile in female rats, 10 mg/kg IV and SC; conditions: rat, in vivo
Description: The pharmacokinetic (PK) profile of CD101 in female rats (three per group) was characterized.

[11] = both sexes, sc, Subcutaneous 30 mg/kg
[12] = female, animal 9707, F, 30 mg/kg SC
[13] = male, animal 9697, M, 30 mg/kg SC

CCCCCOc1ccc(-c2ccc(-c3ccc(C(=O)N[C@H]4C[C@@H](O)[C@@H](OCC[N+](C)(C)C)NC(=O)[C@@H]5[C@@H](O)[C@@H](C)CN5C(=O)[C@H]([C@@H](C)O)NC(=O)[C@H]([C@H](O)[C@@H](O)c5ccc(O)cc5)NC(=O)[C@@H]5C[C@@H](O)CN5C(=O)[C@H]([C@@H](C)O)NC4=O)cc3)cc2)cc1 [CD101] ({pTerphenylCO(4''-OnC5H11)}-[Orn(4R-OH,5R-OCH2CH2NMe3+)]T[Hyp][hTyr(3S-OH,4S-OH)]T[Pro(3S-OH,4S-Me)]; lactam 1-C)
survival ([1]; CD101 SC 5 mg/kg, 14 days): increased survival when prophylaxis was given closer to challenge
symptoms of infection (body weight, hunched posture, ruffled fur, immobility, hypothermia) ([1]; CD101 SC 5, 10 and 20 mg/kg on Day −5, −3 and −1): improved
survival ([1]; CD101 SC 10 and 20 mg/kg, any prophylactic treatment day, 14 days): All animals in the 10 and 20 mg/kg groups survived
14-day survival ([1]; CD101 at 5 mg/kg SC administered one hour after infection): significant increase in the 14-day survival
survival ([1]; prophylaxis, Doses 0 mg/kg): 100%
survival ([1]; prophylaxis, single 5 mg/kg dose given up to 5 days prior to infection): improved survival depending on day given
MIC [2]: 0.03 µg/mL
MEC90 [3]: 0.015 µg/mL
irritation or local (injection site) adverse toxicity ([4]; single 30 mg/kg SC (100 mg/mL)): no sign of irritation or local (injection site) adverse toxicity
bodyweight or food consumption ([4]; single 30 mg/kg SC, 10 days after administration): no effect on bodyweight or food consumption
candidemia infection at follow-up visit (candidemia): confirmed to be resolved
human equivalent doses at which Pneumocystis pneumonia was prevented in mice (Pneumocystis spp.): < 50 mg
survival compared to vehicle (A. fumigatus ATCC 13073; CD101 IV/IP 0.2, 1, or 5 mg/kg BID×5d): significant increase in survival compared to vehicle
survival (A. fumigatus ATCC 13073; single 2 mg/kg vs 0.2 mg/kg BID×5d): Survival was comparable
free fraction in human vs mouse plasma [5]: ~3 ×
percent of bound CD101, mean ([5]; human plasma): 97.4%
survival vs vehicle [6]: significantly longer survival than vehicle
MEC50 [7]: 0.015 µg/mL
MEC90 [7]: 0.015 µg/mL
MEC range [7]: ≤0.0078 to 0.03 µg/mL
half-life [8, 11]: ~124 h
AUC(0-t) [8, 11]: 2460 µg·h/mL
Cmax [8, 11]: 13400 ng/mL
Tmax [8, 11]: 72 h
AUC(0-inf) ([8]; both sexes, sc, Subcutaneous 30 mg/kg, read-out: AUCinf): 3520 µg·h/mL
bioavailability ([8]; both sexes, subcutaneous, SC 30 mg/kg vs IV at the same dose, 10-day period): 80%
half-life ([8]; iv, IV 30 mg/kg): 49.7 h
AUC(0-t) ([8]; IV 30 mg/kg): 3140 µg·h/mL
Cmax ([8]; IV 30 mg/kg): 112000 ng/mL
Tmax ([8]; IV 30 mg/kg): 1 h
AUC(0-inf) ([8]; IV 30 mg/kg, read-out: AUCinf): 3340 µg·h/mL
half-life ([8]; female, sc, animal 9707, F, 30 mg/kg SC): 171 h
AUC(0-t) [8, 12]: 2180 µg·h/mL
Cmax [8, 12]: 10900 ng/mL
Tmax [8, 12]: 48 h
AUC(0-inf) ([8]; female, animal 9707, F, 30 mg/kg SC, read-out: AUCINF_obs): 3760 µg·h/mL
half-life ([8]; male, sc, animal 9697, M, 30 mg/kg SC): 76.2 h
AUC(0-t) [8, 13]: 2740 µg·h/mL
Cmax [8, 13]: 15900 ng/mL
Tmax [8, 13]: 96 h
AUC(0-inf) ([8]; male, animal 9697, M, 30 mg/kg SC, read-out: AUCINF_obs): 3280 µg·h/mL
elimination half-life [9]: 29 to 41 h
half-life ([9]; mouse, plasma, ip, 64 mg/kg, read-out: elimination half-life): 28 to 41 h
AUC(0-inf) ([9]; mouse, plasma): 93.2 to 40500 µg·h/mL
Cmax ([9]; mouse, plasma, read-out: Peak (Cmax) levels): 2600 to 76700 ng/mL
Tmax ([10]; SC administration): 8 to 24 h
half-life ([10]; SC, read-out: t½ (converted)): 48 h
bioavailability ([10]; sc): 97%

Source: patent US20190307843A1, “SINGLE DOSE METHODS FOR PREVENTING AND TREATING FUNGAL INFECTIONS” (Cidara Therapeutics, Inc., priority 2016, published 2019)
